Here are results for two compounds from US8796302B2 (priority 2004, dated 2014).

SMILES strings stand for the structures.

What all share (type): cell-based, rat
For experiment [1], the system named is microglia in neuron-glia cultures. The experiment is described as follows: OX-42 immunostaining of LPS-induced microglial activation. Particulars: for LPS-induced activation of microglia (OX-42): LPS 5 ng/ml, 12 h. The protocol: Dopaminergic neurons were recognized with the anti-TH antibody and microglia were detected with the OX-42 antibody, which recognizes the CR3 receptor. This was accomplished as follows: 3.7% formaldehyde-fixed cultures were treated with 1% hydrogen peroxide for about 10 minutes followed by sequential incubation with a blocking solution (30 min), primary antibody (overnight, 4° C.), biotinylated secondary antibody (2 hours), and ABC reagents (40 min). The color was developed with 3,3′-diaminobenzidine.
Neuron-glia cultures were prepared and treated with vehicle, LPS (5 ng/ml), or LPS plus DM respectively as in Example 1. Twelve hours later, cultures were immunostained with anti-OX-42 antibody. Images shown are representative of three separate experiments. The immunostaining and morphological analysis was accomplished as in Example 2.
Mesencephalic neuron-glia cultures were pretreated with VPA for 48 h and then treated with 20 ng/ml LPS for 72 h, as described in Example 19. Immunostaining with an antibody against OX-42 was then performed, as described in Example 19.

The test system of experiment [2] is intracellular reactive oxygen species. As to the kind of experiment: Intracellular ROS (DCFH oxidation) after LPS.
Method: The production of intracellular reactive oxygen species was measured by DCFH oxidation. The DCFH-DA (Molecular Probes, Eugene, Oreg.) reagent passively diffuses into cells in which it is hydrolyzed by intracellular esterase to liberate 2′-7′-dichlorofluoressein which, during reaction with oxidizing species, yields a highly fluorescent compound 2′-7′-dichlorofluorescein (DCF) that is trapped inside the cell. For each measurement, a fresh stock solution of CM-H2-DCFDA (5 mM) was prepared in dimethylsulfoxide. CM-H2-DCFDA, diluted to a final concentration of 1 μM in phenol red-free HBSS containing 2% FBS and 2% HS, was added to cultures and incubated for about 30 min at about 37° C. After washing two times with warm HBSS, vehicle or stimulators in HBSS were added to cultures. After incubation for about 30 min at about 37° C., fluorescence intensity was measured at 485 nm for excitation and 530 nm for emission using a SpectraMax Gemini XS fluorescence microplate reader (Molecular Devices).
The data are expressed as the percent of the control cultures and are the mean±SEM of three experiments performed in triplicate. *P<0.05, **P<0.01, compared to control.
Assay of intracellular ROS is performed as follows. 5-(and −6)-Chloromethyl-2′,7′-dichlorodihydrofluorescein diacetate (CM-H2-DCFDA) (Molecular Probes, Eugene, Oreg.), a chloromethyl derivative of H2-DCFDA, passively diffuses into cells in which it is hydrolyzed by intracellular esterases to liberate 2′-7′-dichlorofluorescein (DCF) which, during reaction with oxidizing species, yields a highly fluorescent compound that is trapped inside the cell. […] Cells were seeded at 1×10^5/well in 96-well plates for one day followed by treatment with 0.6 mM or 1.2 mM VPA for 24 h. The cultures were used for the assay of intracellular ROS.
After washing two times with warm Hank's balanced salt solution (HBSS), CM-H2-DCFDA, diluted to a final concentration of 1 μM in phenol red-free HBSS, was added to cultures and incubated for 30 min at 37° C. Then cultures were added with 0.6 or 1.2 mM VPA in HBSS again for 30 min and followed the treatment with 100 ng/ml LPS for 2 hours at 37° C., fluorescence intensity was measured at 485 nm for excitation and 530 nm for emission using a SpectraMax Gemini XS fluorescence microplate reader (Molecular Devices, Sunnyvale, Calif.).
The test system of another experiment is TNFα. As to the kind of experiment: TNFα release (ELISA) after LPS. The protocol:
(§1) Different pro-inflammatory factors that are released from microglia were also monitored. The production of NO was determined by measuring the accumulated levels of nitrite in the supernatant with the Griess reagent, and release of TNFα was measured with a rat TNFα enzyme-linked immunosorbent assay kit from R & D System (Minneapolis, Minn.).
Mesencephalic neuron-glia cultures were pretreated with VPA or vehicle control for 48 hours prior to stimulation with 20 ng/ml LPS. The release of TNF-α was determined 3 hours after LPS treatment. The release of TNFα, was measured with a rat TNFα enzyme-linked immunosorbent assay kit from R & D System (Minneapolis, Minn.).
For orientation: An ELISA detects its analyte on a solid surface through an enzyme-linked reagent.

The test system of experiment [3] is dopaminergic neurons in mesencephalic neuron-enriched cultures. As to the kind of experiment: [3H]DA uptake in Aβ- or MPP+-treated neuron-enriched cultures. How it is done: Neuron-enriched culture were prepared from the ventral mesencephalic tissues of embryonic day 13-14 Fisher F344 rats (Charles River Laboratories, Raleigh, N.C.) as follows. Dissociated cells were seeded at 1×10^5/well in 96-well and 5×10^5/well to poly-D-lysine-coated 96-well and 24-well plates, respectively. Glial proliferation was suppressed by the inclusion of cytosine β-D-arabinocide (5-10 μM). Seven day old cultures were used for treatment, which were composed of 91% neurons, 9% astrocytes, and <0.1% microglia. The cultures were pre-treated with OM, 10^−5 M, 10^−10 M, and 10^−14M DM 30 minutes before treatment with vehicle alone, 4 μM Aβ or 0.5 μM MPP^+5 as in Example 1. DA uptake was also measured as in Example 1 and the results are expressed in both FIGS. 4A and B as a percentage of the control cultures and are the mean±S.E.M. of four individual experiments with triplicates in each experiment. […]
Neuron-enriched cultures seeded in 24-well culture plates were pretreated for 48 hours with 0.6 mM VPA followed by treatment with 0.5 μM MPP^+. [^3H]DA uptake was measured 7 days after MPP^+ treatment according to procedures described in Example 1. Results are expressed as mean±SEM of percentage of vehicle control from three independent experiments performed in duplicate. *,p<0.05 compared with vehicle-treated cultures. †, p<0.05 compared with corresponding MPP^+-treated cultures.

A further experiment has as its system NO. The experiment is described as follows: NO production (nitrite, Griess reagent) after LPS. Particulars: for LPS-stimulated NO production (nitrite): 24 after LPS 20 ng/ml. The protocol:
as §1
The cultures were prepared as in Example 1 and were first treated with LPS 20 ng/ml or vehicle; 12 hours later the LPS was removed and the cultures were treated with 10^−5 M, 10^−10M, and 10^−14M DM. Twenty four hours later, nitrite oxide and PGE2 production were assessed as in Example 5. The results are expressed as a percentage of LPS treated culture and are the mean±S.E.M of four and three experiments with triplicates in each experiment. *, p<0.05 compared with the LPS-treated culture. ###, P<0.001 compared with the control culture.
Production of nitric oxide (NO) was determined in the mesencephalic neuron-glia cultures, following pretreatment and LPS stimulation as described above, by measuring the accumulated levels of nitrite in the supernatant with Griess reagent. Accumulation of nitrite, an indicator of LPS-stimulated production of NO, was determined 24 after LPS stimulation.
On the technique in general: Nitrite, measured by Griess reagent, commonly stands in for NO production.

Setting [4] is: DM 10^−5 M and 10^−14 M pretreatment.

Regarding `COc1ccc2c(c1)[C@@]13CCCC[C@H]1[C@@H](C2)N(C)CC3` [DM, d-3-methoxy-N-methylmorphinan], the “LPS-induced activation of microglia (OX-42)” value in experiment [1] (DM 10^−5 M and 10^−14 M) is listed as “prevented the LPS-induced activation of microglia”; in experiment [1] (DM 10^−10 M), “didn't significantly inhibit microglia activation”. For the same compound, the “LPS-induced increase in intracellular reactive oxygen species” value in experiment [2] (setting [4]) is given as “significantly decreased”; in experiment [2] (DM 10^−10 M pretreatment) it was “no significant reduction”. For the same compound, the figures for the “LPS-induced increase in the release of TNFα” value with TNFα (setting [4]) and in the experiment on TNFα (DM 10^−10 M pretreatment) were “significantly decreased” and “no significant reduction”, respectively. Moreover, the “Aβ (1-42)-induced reduction of DA uptake” value in experiment [3] (DM 10^−5, 10^−10, 10^−14 M, Aβ (1-42) 4 μM, 9 days, neuron-enriched) is listed as “did not significantly alter”. Also, the “LPS-induced increase in the release of NO” value with NO (setting [4]) was “significantly decreased”; with NO (DM 10^−10 M pretreatment) it was “no significant reduction”. In addition, the “NO production, post treatment” value in the experiment on NO (femtomolar DM after removal of LPS (20 ng/ml, 12 h), 24 h) was “reduction of NO and PGE2 production”.
In the case of `CCCC(CCC)C(=O)O` [VPA, Valproic acid], the “LPS-stimulated activation of microglia (OX-42)” value in experiment [1] (VPA 0.4 or 0.6 mM, 48 h pretreatment, LPS 20 ng/ml 72 h) is “suppressed”. Besides, in experiment [1] (VPA alone), the “microglia activation (OX-42), VPA alone” value is “did not show significant effects on microglia activation”. The “LPS-induced increase of iROS level” value in experiment [2] (VPA 0.6 or 1.2 mM pretreatment, enriched microglia, LPS 100 ng/ml 2 h) is “completely blocked”. Moreover, the “basal iROS levels” value in experiment [2] (VPA alone 0.6 mM, enriched microglia) is listed as “reduced basal iROS levels”. Also, in the experiment with TNFα (VPA 0.2 mM, 48 h pretreatment, 3 h after LPS 20 ng/ml), the “LPS-induced TNFα production” value is “significant inhibited”. For the same compound, the “LPS-induced production of TNFα” value in the experiment with TNFα (VPA 0.4 or 0.6 mM, 48 h pretreatment, 3 h after LPS 20 ng/ml) is given as “completely blocked”. Also, in experiment [3] (VPA 0.6 mM, 48 hours pretreatment, MPP+ 0.5 μM, 7 days), the “MPP+-induced degeneration of DA neurons (DA uptake)” value is listed as “blocked”. In addition, the figures for the “LPS-stimulated NO production (nitrite)” value in the experiment on NO (VPA 0.4 mM pretreatment) and in the experiment on NO (VPA 0.6 mM pretreatment) were 54 % of the control and 78 % of the control, respectively.
